Article PMC11213902, “Enhancing hepatoprotective action: oxyberberine amorphous solid dispersion system targeting TLR4” (Scientific Reports, 2024)

Columns and labels:
[1] = tested on: hepatic inflammatory mediators and oxidative stress in ALI mice; experiment: LPS/D-GalN-induced ALI, liver biochemical assessment (oxidative and inflammatory stress); format: in vivo, C57BL/6 mice
Procedure: (§1) All mice were randomly divided into six groups (n = 8): normal control group (NC); LPS/D-GalN group; OBB-ASDs25 group (25 mg/kg OBB-HPMCAS); OBB-ASDs50 group (50 mg/kg OBB-HPMCAS); OBB-SUS group (50 mg/kg OBB suspension); Silymarin group (100 mg/kg Silymarin). The drug dosage design for the ALI trial was primarily based on our previous research findings[25] and preclinical experiments. Except for NC and LPS/D-GalN groups, all other groups of mice were respectively pretreated by gavage with the corresponding dose of OBB-ASDs, OBB-SUS, and Silymarin once daily for 7 consecutive days. Mice in NC and LPS/D-GalN group were given the same volume of saline by intragastric administration. At 2 h postdose, all mice (except the NC group) were exposed to 30 μg/kg LPS and 600 mg/kg D-GalN. Mice in NC group were received the same volume of PBS intraperitoneally. After challenging for 6 h, blood samples were collected from the eyeball vein under 2% sodium pentobarbital anesthesia. Subsequently, the liver was immediately dissected, weighed, washed with saline, and stored at − 80 °C until further analyzed.
Fresh liver tissues were homogenized in Tris–HCl buffer (pH 7.4) and centrifuged at 4500 rpm for 15 min (4 °C). Subsequently, the supernatants were collected and assayed for MDA, SOD, GSH, MCP-1, TNF-α, IL-1β, and IL-6 using its specific commercially available assay kit following the manufacturer’s instructions.

[2] = tested on: ALI challenged by LPS/D-GalN; parameters: method as in PMID 35691465; conditions: previous research ref 8; cited from earlier work
[3] = Preliminary experiment: absorption and oral bioavailability; format: in vivo; conditions: pure OBB
kidneys = experiment: Chronic nephrotoxicity assessment (kidney HE staining); format: in vivo, C57BL/6 mice; conditions: mice, oral, 50 mg/kg, continuous administration for 4, 8, and 16 weeks
Procedure: Male C57BL/6 mice were orally administered OBB and OBB-HPMCAS at a dose of 50 mg/kg for 16 weeks. Kidney tissues were collected at 4, 8, and 16 weeks for HE staining to observe the long-term effects of OBB administration on the kidneys.

[4] = tested on: LPS/D-GalN-induced acute liver injury (ALI) mice; experiment: LPS/D-GalN-induced ALI, liver pathological changes (H&E); format: in vivo, C57BL/6 mice; conditions: gavage once daily 7 days; OBB-ASDs 25 and 50 mg/kg, OBB-SUS 50 mg/kg, Silymarin 100 mg/kg
Procedure: as §1
Liver tissue pathology was evaluated by regular hematoxylin–eosin (H&E) staining. […] According to the scoring system, liver injury was evaluated by pathologists blinded to the experimental protocol. Scores were determined as Dkhil et al. previously described (Table 3)[26].

[5] = tested on: non-alcoholic fatty liver disease (NAFLD); parameters: method as in PMID 33831691; conditions: cited from earlier work
[6] = In vitro dissolution study (paddle method); format: physicochemical; conditions: 0.3% SDS medium, 37 °C
Procedure: The dissolution Apparatus II (stirring paddle method) was utilized for the in vitro dissolution studies at a rotation speed of 100 ± 1 rpm in 250 mL 0.3% (w/v) sodium dodecyl sulfate (SDS) aqueous solution medium with a ZRS-8G dissolution tester (Tianjin Haiyida Technology Co., Ltd, Tianjin, China). All experiments were performed at 37 ± 0.5 °C. The OBB-ASDs samples were weighed to be equivalent to 2 mg of OBB. At predetermined time points (0, 5, 10, 20, 30, 60, and 90 min), 0.5 mL of sample solution was taken out and replaced with the same volume of fresh SDS solution (37 ± 0.5 °C). After being filtered through a 0.22 μm syringe filter, the filtered samples were collected and analyzed by HPLC.

[7] = tested on: LPS/D-GalN-induced acute liver injury (ALI) mice; experiment: LPS/D-GalN-induced ALI, liver function analysis (serum ALT, AST); format: in vivo, C57BL/6 mice; conditions: gavage once daily 7 days; OBB-ASDs 25 and 50 mg/kg, OBB-SUS 50 mg/kg, Silymarin 100 mg/kg; P < 0.05
Procedure: as §1
After centrifugated at 3000 g for 10 min, serum was acquired and the activities of ALT and AST were measured using commercial kits (Nanjing Jiancheng, China) following the manufacturer’s instructions.

[8] = In vivo oral bioavailability study; parameters: species or system SD rats; conditions: male, rat plasma OBB, 100 mg/kg, n = 6, mean ± SD
Procedure: Male SD rats weighing 220 ± 15 g were obtained from the Guangdong Medical Laboratory Animal Center (GDMLAC, Guangzhou, China). After fasting overnight, six rats were taken in each group, based on respective treatment at a dose of 100 mg/kg each: OBB-HPMCAS and OBB-SUS (OBB suspension). After isoflurane anesthesia, blood samples were collected from the posterior orbital venous plexus at 5, 10, 20, 30, 60, 90, 120, 180, 240, 360, 480, 720, and 1440 min, respectively. After centrifugation (12,000 rpm, 5 min), plasma was collected and stored at − 80 °C for further analysis. For deproteinization of plasma, ethyl acetate (200 μL) was added to the mixture and vortexed for 3 min. After centrifugation for […], the supernatant was collected and vacuum dried at 40 °C, − 0.8 Mpa. The residue was redissolved with 100 μL methanol/water (50:50, v/v). After centrifugation (12,000 rpm, 10 min), the supernatant was analyzed by LC–MS/MS system. Pharmacokinetic parameters were calculated based on the plasma pharmacokinetics of OBB. The peak concentration (Cmax), time of the peak concentration (Tmax), half-life (T1/2), and area under the profile from time 0 to 24 h (AUC0-24), were calculated using a DAS software (Version 2.0; Drug And Statistics, Shanghai, China, RRID: SCR_022672).

[9] = tested on: mRNA expression of TLR4, MyD88, IL-1β, and IL-6; experiment: LPS/D-GalN-induced ALI, quantitative PCR of liver tissues; format: in vivo, C57BL/6 mice; conditions: P < 0.01
Procedure: as §1, with “-” for “−”, “analyzed. […] Quantitative PCR was performed on an Applied Biosystems 7500 Real-Time system (ABI 7500, RRID: SCR_018051). Primer sequences against mouse cDNAs used in qPCR were listed as follows: TLR4, [NT] (reverse); MyD88, […] (reverse); IL-6, [NT] (reverse); IL-1β, [NT] (reverse); and GAPDH, […] (reverse).” for “analyzed.”

[10] = parameters: method as in PMID 30599908; conditions: cited from earlier work
[11] = compared with the LPS/D-GalN group
[12] = pretreatment 7 days, OBB-ASDs 25 and 50 mg/kg, OBB-SUS 50 mg/kg, Silymarin 100 mg/kg, vs LPS/D-GalN group
[13] = higher in LPS/D-GalN challenged mice
[14] = qRT-PCR, elevation after LPS/D-GalN exposure

- absorption and oral bioavailability [3]: poor
- release / dissolution rate, pure OBB compared with formulations [6]: significantly slower
- Cmax [8]: 169 ± 18.6 ng/mL
- Tmax [8]: 4.67 ± 0.52 h
- half-life [8]: 2.99 ± 0.42 h
- AUC(0-t) ([8]; read-out: AUC0-24): 1260 ± 130 ng·h/mL
SMILES: COc1ccc2cc3n(c(=O)c2c1OC)CCc1cc2c(cc1-3)OCO2 [OBB, 8-Oxyberberine]
- hepatic CAT content [1, 11]: increasing
- hepatic GSH content [1, 11]: increasing
- hepatic MDA level [1, 11]: dramatically suppressed
- hepatic SOD content [1, 11]: increasing
- IL-1β level in liver [1, 12]: largely decreased
- IL-6 level in liver [1, 12]: largely decreased
- MCP-1 level in liver [1, 12]: largely decreased
- TNF-α level in liver [1, 12]: largely decreased
- effect on ALI challenged by LPS/D-GalN [2]: effectively attenuated
- kidney damage (HE staining) (kidneys): no significant kidney damage
- liver tissue injury (H&E staining) vs model group [4]: conspicuously mitigated
- effect on non-alcoholic fatty liver disease (NAFLD) [5]: pronounced therapeutic effect
- serum ALT level vs LPS/D-GalN group [7]: extremely reduced
- serum AST level vs LPS/D-GalN group [7]: extremely reduced
- MyD88 mRNA expression (real-time PCR) [9, 13]: restored
- TLR4 mRNA expression (real-time PCR) [9, 13]: restored
- IL-1β mRNA expression level in liver [9, 14]: markedly restore
- IL-6 mRNA expression level in liver [9, 14]: markedly restore
- solubility in water [10]: poorly soluble in water
